Tested on: 454973-116-R2-J3-PDC spheroids, viability, % test/control
Assay: Anticancer human tumor 454973-116-R2-J3-PDC patient-derived pancreatic carcinoma cell line growth inhibition [GQUAD]
Conditions: spheroids with HUVEC and MSC; for IC50: curve of first compound; for viability, T/C: stronger effect = lower value
Procedure, shortened: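 Viability of tumor cells grown as complex spheroids with endothelial and stromal cells, exposed to drug combinations. Top concentration at or near clinical Cmax (else 10 microM), diluted in half-log increments.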

[1] = second compound 0.0316 µM, first compound 0.0316 µM
[2] = second compound 0.0316 µM, first compound 0.1 µM
[3] = second compound 0.0316 µM, first compound 0.316 µM
[4] = second compound 0.0316 µM, first compound 1 µM
[5] = second compound 0.0316 µM, first compound 3.16 µM
[6] = second compound 0.0316 µM, first compound 10 µM
[7] = second compound 0.1 µM, first compound 0.0316 µM
[8] = second compound 0.1 µM, first compound 0.1 µM
[9] = second compound 0.1 µM, first compound 0.316 µM
[10] = second compound 0.1 µM, first compound 1 µM
[11] = second compound 0.1 µM, first compound 3.16 µM
[12] = second compound 0.1 µM, first compound 10 µM
[13] = second compound 0.316 µM, first compound 0.0316 µM
[14] = second compound 0.316 µM, first compound 0.1 µM
[15] = second compound 0.316 µM, first compound 0.316 µM
[16] = second compound 0.316 µM, first compound 1 µM
[17] = second compound 0.316 µM, first compound 3.16 µM
[18] = second compound 0.316 µM, first compound 10 µM
[19] = second compound 1 µM, first compound 0.0316 µM
[20] = second compound 1 µM, first compound 0.1 µM
[21] = second compound 1 µM, first compound 0.316 µM
[22] = second compound 1 µM, first compound 1 µM
[23] = second compound 1 µM, first compound 3.16 µM
[24] = second compound 1 µM, first compound 10 µM
[25] = second compound 3.16 µM, first compound 0.0316 µM
[26] = second compound 3.16 µM, first compound 0.1 µM
[27] = second compound 3.16 µM, first compound 0.316 µM
[28] = second compound 3.16 µM, first compound 1 µM
[29] = second compound 3.16 µM, first compound 3.16 µM
[30] = second compound 3.16 µM, first compound 10 µM
[31] = second compound 10 µM, first compound 0.0316 µM
[32] = second compound 10 µM, first compound 0.1 µM
[33] = second compound 10 µM, first compound 0.316 µM
[34] = second compound 10 µM, first compound 1 µM
[35] = second compound 10 µM, first compound 3.16 µM
[36] = second compound 10 µM, first compound 10 µM
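Also: spheroids exposed to compounds for seven days.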
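For viability, T/C in this document: 100% = DMSO vehicle control viability.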

**Q.** How did the IC50 (second compound 0.0316 µM) turn out when `C=CC(=O)N1CCN(c2nc(=O)n(-c3c(C)ccnc3C(C)C)c3nc(-c4c(O)cccc4F)c(F)cc23)C(C)C1` (centres undefined) + Cc1[nH]c2ccc(F)cc2c1-c1nc2c3cccnc3c3ncccc3c2[nH]1 was run?
**A.** The IC50 was > 10 µM.

**Q.** What about the IC50 (second compound 0.1 µM) of the same compound?
**A.** The IC50 was > 10 µM.

**Q.** And the IC50 (second compound 0.316 µM)?
**A.** Its IC50 is > 10 µM.

**Q.** What about the IC50 (second compound 1 µM) of the same compound?
**A.** The IC50 was > 10 µM.

**Q.** And the IC50 (second compound 3.16 µM)?
**A.** The IC50 was > 10 µM.

**Q.** What about the IC50 (second compound 10 µM) of the same compound?
**A.** Its IC50 is > 10 µM.

**Q.** And the viability, T/C [1]?
**A.** Its viability, T/C is 110%.

**Q.** And the viability, T/C [2]?
**A.** Its viability, T/C is 107%.

**Q.** What about the viability, T/C [3] of the same compound?
**A.** The viability, T/C was 115%.

**Q.** And the viability, T/C [4]?
**A.** Its viability, T/C is 109%.

**Q.** What about the viability, T/C [5] of the same compound?
**A.** Its viability, T/C is 113%.

**Q.** And the viability, T/C [6]?
**A.** Its viability, T/C is 114%.

**Q.** What about the viability, T/C [7] of the same compound?
**A.** The viability, T/C was 100%.

**Q.** What about the viability, T/C [8] of the same compound?
**A.** The viability, T/C was 102%.

**Q.** And the viability, T/C [9]?
**A.** Its viability, T/C is 114%.

**Q.** What about the viability, T/C [10] of the same compound?
**A.** Its viability, T/C is 108%.

**Q.** And the viability, T/C [11]?
**A.** The viability, T/C was 125%.

**Q.** What about the viability, T/C [12] of the same compound?
**A.** Its viability, T/C is 109%.

**Q.** And the viability, T/C [13]?
**A.** Its viability, T/C is 103%.

**Q.** And the viability, T/C [14]?
**A.** The viability, T/C was 111%.

**Q.** What about the viability, T/C [15] of the same compound?
**A.** The viability, T/C was 107%.

**Q.** What about the viability, T/C [16] of the same compound?
**A.** Its viability, T/C is 100%.

**Q.** What about the viability, T/C [17] of the same compound?
**A.** The viability, T/C was 119%.

**Q.** What about the viability, T/C [18] of the same compound?
**A.** The viability, T/C was 113%.

**Q.** And the viability, T/C [19]?
**A.** The viability, T/C was 107%.

**Q.** And the viability, T/C [20]?
**A.** The viability, T/C was 97%.

**Q.** And the viability, T/C [21]?
**A.** Its viability, T/C is 112%.

**Q.** What about the viability, T/C [22] of the same compound?
**A.** Its viability, T/C is 103%.

**Q.** And the viability, T/C [23]?
**A.** Its viability, T/C is 114%.

**Q.** What about the viability, T/C [24] of the same compound?
**A.** The viability, T/C was 123%.

**Q.** What about the viability, T/C [25] of the same compound?
**A.** The viability, T/C was 96.2%.

**Q.** What about the viability, T/C [26] of the same compound?
**A.** The viability, T/C was 95.3%.

**Q.** And the viability, T/C [27]?
**A.** Its viability, T/C is 96.4%.

**Q.** And the viability, T/C [28]?
**A.** Its viability, T/C is 111%.

**Q.** And the viability, T/C [29]?
**A.** Its viability, T/C is 113%.

**Q.** And the viability, T/C [30]?
**A.** Its viability, T/C is 107%.

**Q.** What about the viability, T/C [31] of the same compound?
**A.** Its viability, T/C is 93.8%.

**Q.** What about the viability, T/C [32] of the same compound?
**A.** Its viability, T/C is 81.8%.

**Q.** And the viability, T/C [33]?
**A.** The viability, T/C was 104%.

**Q.** What about the viability, T/C [34] of the same compound?
**A.** Its viability, T/C is 92.8%.

**Q.** What about the viability, T/C [35] of the same compound?
**A.** Its viability, T/C is 89.6%.

**Q.** And the viability, T/C [36]?
**A.** The viability, T/C was 83.6%.

**Q.** `Cc1cccc(N(C)C(=O)C2C(O)CCN2c2nc(C)cc(C(F)(F)F)c2C#N)c1` (centres undefined) + Cc1[nH]c2ccc(F)cc2c1-c1nc2c3cccnc3c3ncccc3c2[nH]1 was tested. Which IC50 (second compound 0.0316 µM) did it give?
**A.** Its IC50 is > 10 µM.

**Q.** And the IC50 (second compound 0.1 µM)?
**A.** The IC50 was > 10 µM.

**Q.** What about the IC50 (second compound 0.316 µM) of the same compound?
**A.** Its IC50 is > 10 µM.

**Q.** And the IC50 (second compound 1 µM)?
**A.** Its IC50 is > 10 µM.

**Q.** And the IC50 (second compound 3.16 µM)?
**A.** Its IC50 is > 10 µM.

**Q.** And the IC50 (second compound 10 µM)?
**A.** The IC50 was > 10 µM.

**Q.** What about the viability, T/C [1] of the same compound?
**A.** The viability, T/C was 102%.

**Q.** What about the viability, T/C [2] of the same compound?
**A.** Its viability, T/C is 94.9%.

**Q.** And the viability, T/C [3]?
**A.** The viability, T/C was 104%.

**Q.** And the viability, T/C [4]?
**A.** Its viability, T/C is 102%.

**Q.** And the viability, T/C [5]?
**A.** The viability, T/C was 108%.

**Q.** What about the viability, T/C [6] of the same compound?
**A.** The viability, T/C was 98%.

**Q.** And the viability, T/C [7]?
**A.** The viability, T/C was 102%.

**Q.** What about the viability, T/C [8] of the same compound?
**A.** Its viability, T/C is 100%.

**Q.** What about the viability, T/C [9] of the same compound?
**A.** The viability, T/C was 103%.

**Q.** And the viability, T/C [10]?
**A.** Its viability, T/C is 97.7%.

**Q.** What about the viability, T/C [11] of the same compound?
**A.** Its viability, T/C is 115%.

**Q.** What about the viability, T/C [12] of the same compound?
**A.** Its viability, T/C is 108%.

**Q.** And the viability, T/C [13]?
**A.** The viability, T/C was 104%.

**Q.** What about the viability, T/C [14] of the same compound?
**A.** The viability, T/C was 104%.

**Q.** And the viability, T/C [15]?
**A.** The viability, T/C was 109%.

**Q.** And the viability, T/C [16]?
**A.** Its viability, T/C is 101%.

**Q.** And the viability, T/C [17]?
**A.** Its viability, T/C is 109%.

**Q.** And the viability, T/C [18]?
**A.** The viability, T/C was 110%.

**Q.** And the viability, T/C [19]?
**A.** The viability, T/C was 103%.

**Q.** And the viability, T/C [20]?
**A.** The viability, T/C was 105%.

**Q.** What about the viability, T/C [21] of the same compound?
**A.** Its viability, T/C is 113%.

**Q.** And the viability, T/C [22]?
**A.** Its viability, T/C is 107%.

**Q.** What about the viability, T/C [23] of the same compound?
**A.** The viability, T/C was 112%.

**Q.** And the viability, T/C [24]?
**A.** Its viability, T/C is 106%.

**Q.** And the viability, T/C [25]?
**A.** The viability, T/C was 86.8%.

**Q.** What about the viability, T/C [26] of the same compound?
**A.** Its viability, T/C is 88.7%.

**Q.** And the viability, T/C [27]?
**A.** Its viability, T/C is 97.4%.

**Q.** And the viability, T/C [28]?
**A.** The viability, T/C was 106%.

**Q.** And the viability, T/C [29]?
**A.** The viability, T/C was 103%.

**Q.** And the viability, T/C [30]?
**A.** Its viability, T/C is 105%.

**Q.** What about the viability, T/C [31] of the same compound?
**A.** The viability, T/C was 105%.

**Q.** And the viability, T/C [32]?
**A.** The viability, T/C was 95.8%.

**Q.** What about the viability, T/C [33] of the same compound?
**A.** The viability, T/C was 101%.

**Q.** What about the viability, T/C [34] of the same compound?
**A.** Its viability, T/C is 90.2%.

**Q.** And the viability, T/C [35]?
**A.** The viability, T/C was 99%.

**Q.** And the viability, T/C [36]?
**A.** The viability, T/C was 101%.

Reference: PubChem BioAssay AID2060508 (Molecular Pharmacology Branch, DTP, NCI, 2025)
